Punished responding data for one compound are collected here from patent US5834494A, “Pyridylcarbamoyl Indolines” (SmithKline Beecham p.l.c., priority 1993, dated 1998).

The assay in a line: Geller Seifter Procedure. In kind it is in vivo. To be noted: dose range 0.5-10 mg/kg p.o.; procedure of WO 94/04533. Here is the method: The compound of example 2 was tested following the procedure outlined in WO 94/04533.

Molecules are shown by their SMILES.

As for `Cc1cc2c(cc1Cl)N(C(=O)Nc1cccnc1)CC2` [Example 2, 6-Chloro-5-methyl-1-(3-pyridycarbamoyl)indoline], the punished responding result was “significant increase in punished responding”.
